In ChEMBL document CHEMBL1629655, “Affinity of Tomopenem (CS-023) for penicillin-binding proteins in Staphylococcus aureus, Escherichia coli, and Pseudomonas aeruginosa” (Antimicrob Agents Chemother, 2009):
In brackets after ≈: the same amount, converted by molar mass. Activity calls are given as the source filed them. The calls are words filed in the database; no cut-off is given here.

Key:
[1] = test system: Staphylococcus aureus; assay: Antibacterial activity against Staphylococcus aureus ATCC 6538P by microdilution method; type: functional, organism-based
[2] = test system: Escherichia coli; assay: Antibacterial activity against Escherichia coli NIHJ by microdilution method; type: functional, organism-based
[3] = test system: Pseudomonas aeruginosa; assay: Antibacterial activity against Pseudomonas aeruginosa ATCC 15692 by microdilution method; type: functional, organism-based
[4] = Displacement of [14C]benzylpenicillin from PBP1 in Staphylococcus aureus ATCC 6538P
[5] = Displacement of [14C]benzylpenicillin from PBP2 Staphylococcus aureus ATCC 6538P
[6] = Displacement of [14C]benzylpenicillin from PBP3 in Staphylococcus aureus ATCC 6538P
[7] = Displacement of [14C]benzylpenicillin from PBP4 in Staphylococcus aureus ATCC 6538P
[8] = Displacement of [14C]benzylpenicillin from PBP1A in Escherichia coli NIHJ
[9] = Displacement of [14C]benzylpenicillin from PBP1B in Escherichia coli NIHJ
[10] = Displacement of [14C]benzylpenicillin from PBP2 in Escherichia coli NIHJ
[11] = Displacement of [14C]benzylpenicillin from PBP3 in Escherichia coli NIHJ
[12] = Displacement of [14C]benzylpenicillin from PBP4 in Escherichia coli NIHJ
[13] = Displacement of [14C]benzylpenicillin from PBP5 in Escherichia coli NIHJ
[14] = Displacement of [14C]benzylpenicillin from PBP6 Escherichia coli NIHJ
[15] = Displacement of [14C]benzylpenicillin from PBP1A in Pseudomonas aeruginosa ATCC 15692
[16] = Displacement of [14C]benzylpenicillin from PBP1B in Pseudomonas aeruginosa ATCC 15692
[17] = Displacement of [14C]benzylpenicillin from PBP2 in Pseudomonas aeruginosa ATCC 15692
[18] = Displacement of [14C]benzylpenicillin from PBP3 in Pseudomonas aeruginosa ATCC 15692
[19] = Displacement of [14C]benzylpenicillin from PBP4 in Pseudomonas aeruginosa ATCC 15692
[20] = Displacement of [14C]benzylpenicillin from PBP 5 in Pseudomonas aeruginosa ATCC 15692
[21] = Displacement of [14C]benzylpenicillin from PBP 6 in Pseudomonas aeruginosa ATCC 15692
[22] = test system: Escherichia coli; assay: Antibacterial activity against Escherichia coli NIHJ assessed as appearance of swollen cells at 1/8 times MIC by Scanning electron microscopy; type: functional, organism-based
[23] = test system: Escherichia coli; assay: Antibacterial activity against Escherichia coli NIHJ assessed as appearance of spherical and bulge cells at 8 times MIC by Scanning electron microscopy; type: functional, organism-based
[24] = test system: Pseudomonas aeruginosa; assay: Antibacterial activity against Pseudomonas aeruginosa ATCC 15692 assessed as filamentation of cells at 0.125 times MIC by scanning electron microscopy; type: functional, organism-based
[25] = test system: Pseudomonas aeruginosa; assay: Antibacterial activity against Pseudomonas aeruginosa ATCC 15692 assessed as appearance of bulge cells at MIC by Scanning electron microscopy; type: functional, organism-based
[26] = test system: Staphylococcus aureus; assay: Antibacterial activity against Staphylococcus aureus SRR2a selected at 2 times MIC of tomopenem by microdilution method; type: functional
[27] = test system: Staphylococcus aureus; assay: Ratio of MIC for Staphylococcus aureus SRR2a to MIC for Staphylococcus aureus ATCC 6538P; type: functional
[28] = test system: Staphylococcus aureus; assay: Antibacterial activity against Staphylococcus aureus SIR2a selected at 2 times MIC of imipenem by microdilution method; type: functional
[29] = test system: Staphylococcus aureus; assay: Ratio of MIC for Staphylococcus aureus SIR2a selected at 2 times MIC of imipenem to MIC for Staphylococcus aureus ATCC 6538P; type: functional
[30] = test system: Staphylococcus aureus; assay: Antibacterial activity against Staphylococcus aureus SMR2a selected at 2 times MIC of meropenem by microdilution method; type: functional
[31] = test system: Staphylococcus aureus; assay: Ratio of MIC for Staphylococcus aureus SMR2a to MIC for Staphylococcus aureus ATCC 6538P; type: functional
[32] = test system: Staphylococcus aureus; assay: Antibacterial activity against Staphylococcus aureus SMR4a […] MIC of meropenem by microdilution method; type: functional
[33] = test system: Staphylococcus aureus; assay: Ratio of MIC for Staphylococcus aureus SMR4a to MIC for Staphylococcus aureus ATCC 6538P; type: functional
[34] = test system: Escherichia coli; assay: Antibacterial activity against Escherichia coli ERR2a selected at 2 times MIC of tomopenem by microdilution method; type: functional
[35] = test system: Escherichia coli; assay: Ratio of MIC for Escherichia coli ERR2a selected to MIC for Escherichia coli NIHJ; type: functional
[36] = test system: Escherichia coli; assay: Antibacterial activity against Escherichia coli ERR2b selected at 2 times MIC of tomopenem by microdilution method; type: functional
[37] = test system: Escherichia coli; assay: Ratio of MIC for Escherichia coli ERR2b to MIC for Escherichia coli NIHJ; type: functional
[38] = test system: Escherichia coli; assay: Antibacterial activity against Escherichia coli ERR4a selected at 4 times MIC of tomopenem by microdilution method; type: functional
[39] = test system: Escherichia coli; assay: Ratio of MIC for Escherichia coli ERR4a to MIC for Escherichia coli NIHJ; type: functional
[40] = test system: Escherichia coli; assay: Antibacterial activity against Escherichia coli ERR8a selected at 8 times MIC of tomopenem by microdilution method; type: functional
[41] = test system: Escherichia coli; assay: Ratio of MIC for Escherichia coli ERR8a to MIC for Escherichia coli NIHJ; type: functional
[42] = test system: Escherichia coli; assay: Antibacterial activity against Escherichia coli EIR2a selected at 2 times MIC of imipenem by microdilution method; type: functional
[43] = test system: Escherichia coli; assay: Ratio of MIC for Escherichia coli EIR2a to MIC for Escherichia coli NIHJ; type: functional
[44] = test system: Escherichia coli; assay: Antibacterial activity against Escherichia coli EIR2b selected at 2 times MIC of imipenem by microdilution method; type: functional
[45] = test system: Escherichia coli; assay: Ratio of MIC for Escherichia coli EIR2b to MIC for Escherichia coli NIHJ; type: functional
[46] = test system: Escherichia coli; assay: Antibacterial activity against Escherichia coli EIR4a selected at 4 times MIC of imipenem by microdilution method; type: functional
[47] = test system: Escherichia coli; assay: Ratio of MIC for Escherichia coli EIR4a to MIC for Escherichia coli NIHJ; type: functional
[48] = test system: Escherichia coli; assay: Antibacterial activity against Escherichia coli EIR4b selected at 4 times MIC of imipenem by microdilution method; type: functional
[49] = test system: Escherichia coli; assay: Ratio of MIC for Escherichia coli EIR4b to MIC for Escherichia coli NIHJ; type: functional
[50] = test system: Escherichia coli; assay: Antibacterial activity against Escherichia coli EIR8a selected at 8 times MIC of imipenem by microdilution method; type: functional
[51] = test system: Escherichia coli; assay: Ratio of MIC for Escherichia coli EIR8a to MIC for Escherichia coli NIHJ; type: functional
[52] = test system: Escherichia coli; assay: Antibacterial activity against Escherichia coli EMR2a selected at 2 times MIC of meropenem by microdilution method; type: functional
[53] = test system: Escherichia coli; assay: Ratio of MIC for Escherichia coli EMR2a to MIC for Escherichia coli NIHJ; type: functional
[54] = test system: Pseudomonas aeruginosa; assay: Antibacterial activity against Pseudomonas aeruginosa PRR4a selected at 4 times MIC of tomopenem by microdilution method; type: functional
[55] = test system: Pseudomonas aeruginosa; assay: Ratio of MIC for Pseudomonas aeruginosa PRR4a to MIC for Pseudomonas aeruginosa ATCC 15692; type: functional
[56] = test system: Pseudomonas aeruginosa; assay: Antibacterial activity against Pseudomonas aeruginosa PIR2a selected at 2 times MIC of imipenem by microdilution method; type: functional
[57] = test system: Pseudomonas aeruginosa; assay: Ratio of MIC for Pseudomonas aeruginosa PIR2a to MIC for Pseudomonas aeruginosa ATCC 15692; type: functional
[58] = test system: Pseudomonas aeruginosa; assay: Antibacterial activity against Pseudomonas aeruginosa PMR2a selected at 2 times MIC of meropenem by microdilution method; type: functional
[59] = test system: Pseudomonas aeruginosa; assay: Ratio of MIC for Pseudomonas aeruginosa PMR2a to MIC for Pseudomonas aeruginosa ATCC 15692; type: functional
[60] = test system: Staphylococcus aureus; assay: Antibacterial activity against Staphylococcus aureus ATCC 6538P assessed as fold decrease in compound susceptibility after 10 passages relative to control; type: functional
[61] = test system: Pseudomonas aeruginosa; assay: Antibacterial activity against Pseudomonas aeruginosa ATCC 15692 assessed as fold decrease in compound susceptibility after 10 passages relative to control; type: functional
[62] = test system: Staphylococcus aureus; assay: Antibacterial activity against methicillin-sensitive Staphylococcus aureus by microdilution method; type: functional
[63] = test system: Staphylococcus aureus; assay: Antibacterial activity against methicillin-resistant Staphylococcus aureus by microdilution method; type: functional

Structure (SMILES): C[C@@H](O)[C@H]1C(=O)N2C(C(=O)O)=C(S[C@H]3C[C@@H](C(=O)N4CC[C@H](NC(=O)CNC(=N)N)C4)N(C)C3)[C@H](C)[C@H]12 [TOMOPENEM]
- IC50 [1]: 0.06 µg/mL (≈ 0.112 µM)
- MBC [1]: 0.06 µg/mL (≈ 0.112 µM)
- MIC [1]: 0.06 µg/mL (≈ 0.112 µM)
- MBC [2]: 0.03 µg/mL (≈ 0.0558 µM)
- MIC [2]: 0.03 µg/mL (≈ 0.0558 µM)
- MBC [3]: 0.5 µg/mL (≈ 0.93 µM)
- MIC [3]: 0.5 µg/mL (≈ 0.93 µM)
- IC50 [4]: 0.16 µg/mL (≈ 0.298 µM)
- IC50 [5]: 0.21 µg/mL (≈ 0.391 µM)
- IC50 [6]: > 32 µg/mL
- IC50 [7]: 0.094 µg/mL (≈ 0.175 µM)
- IC50 [8]: 1.2 µg/mL (≈ 2.23 µM)
- IC50 [9]: 1.3 µg/mL (≈ 2.42 µM)
- IC50 [10]: 0.017 µg/mL (≈ 0.0316 µM)
- IC50 [11]: 0.71 µg/mL (≈ 1.32 µM)
- IC50 [12]: > 32 µg/mL
- IC50 [13]: 5.7 µg/mL (≈ 10.6 µM)
- IC50 [14]: 31 µg/mL (≈ 57.7 µM)
- IC50 [15]: 0.061 µg/mL (≈ 0.113 µM)
- IC50 [16]: 0.053 µg/mL (≈ 0.0986 µM)
- IC50 [17]: 0.011 µg/mL (≈ 0.0205 µM)
- IC50 [18]: 0.011 µg/mL (≈ 0.0205 µM)
- IC50 [19]: 0.0035 µg/mL (≈ 0.00651 µM)
- IC50 [20]: 5 µg/mL (≈ 9.3 µM)
- IC50 [21]: 5 µg/mL (≈ 9.3 µM)
- Activity [22]: Active
- Activity [23]: Active
- Activity [24]: Active
- Activity [25]: Active
- MIC [26]: 0.25 µg/mL
- Ratio MIC [27]: 4
- MIC [28]: 0.25 µg/mL
- Ratio MIC [29]: 4
- MIC [30]: 0.25 µg/mL
- Ratio MIC [31]: 4
- MIC [32]: 0.5 µg/mL
- ratio [33]: 8
- MIC [34]: 0.12 µg/mL
- Ratio MIC [35]: 4
- MIC [36]: 0.12 µg/mL
- Ratio MIC [37]: 4
- MIC [38]: 0.12 µg/mL
- Ratio MIC [39]: 4
- MIC [40]: 0.12 µg/mL
- Ratio MIC [41]: 4
- MIC [42]: 0.06 µg/mL
- Ratio MIC [43]: 2
- MIC [44]: 0.06 µg/mL
- Ratio MIC [45]: 2
- MIC [46]: 0.06 µg/mL
- Ratio MIC [47]: 2
- MIC [48]: 0.06 µg/mL
- Ratio MIC [49]: 2
- MIC [50]: 0.06 µg/mL
- Ratio MIC [51]: 2
- MIC [52]: 0.06 µg/mL
- Ratio MIC [53]: 2
- MIC [54]: 8 µg/mL
- Ratio MIC [55]: 32
- MIC [56]: 2 µg/mL
- Ratio MIC [57]: 8
- MIC [58]: 2 µg/mL
- Ratio MIC [59]: 8
- fold change (FC) [60]: 2
- fold change (FC) [61]: 8
- MIC50 [62]: 0.12 µg/mL (≈ 0.223 µM)
- MIC90 [62]: 0.12 µg/mL (≈ 0.223 µM)
- MIC50 [63]: 4 µg/mL (≈ 7.44 µM)
- MIC90 [63]: 8 µg/mL (≈ 14.9 µM)
